Laboratory results: PMC5078040 (Oncotarget, 2016)
pIC50: −log10 of the molar value.

How the values were obtained:
LATS2 = target: T1, LATS2 (Homo sapiens, UniProt Q9NRM7); experiment: KinomeScan; type: binding; settings: 1uM
T1 construct: purchased DiscoveRx KINOMEscan

JNK3 = target: T2, JNK3 (Homo sapiens, UniProt P53779); experiment: KinomeScan; type: binding; settings: 1uM
T2 construct: purchased DiscoveRx KINOMEscan

BRAF = target: T3, BRAF (Homo sapiens, UniProt P15056); experiment: KinomeScan; type: binding; settings: 1uM
T3 construct: purchased DiscoveRx KINOMEscan

PIM2 = target: T4, PIM2 (Homo sapiens, UniProt Q9P1W9); experiment: KinomeScan; type: binding; settings: 1uM
T4 construct: purchased DiscoveRx KINOMEscan
T4 sequence (Q9P1W9 whole entry): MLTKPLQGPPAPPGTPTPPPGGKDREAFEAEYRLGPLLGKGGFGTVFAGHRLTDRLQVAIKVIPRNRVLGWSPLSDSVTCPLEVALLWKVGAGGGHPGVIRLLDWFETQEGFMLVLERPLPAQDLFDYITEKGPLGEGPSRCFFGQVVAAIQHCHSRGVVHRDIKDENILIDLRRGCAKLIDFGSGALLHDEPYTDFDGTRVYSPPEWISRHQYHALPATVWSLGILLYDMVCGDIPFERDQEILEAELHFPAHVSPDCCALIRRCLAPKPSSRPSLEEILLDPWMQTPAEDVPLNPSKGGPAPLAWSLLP

JNK1 = target: T5, JNK1 (Homo sapiens, UniProt P45983); experiment: KinomeScan; type: binding; settings: 1uM
T5 construct: purchased DiscoveRx KINOMEscan
T5 sequence (P45983 whole entry): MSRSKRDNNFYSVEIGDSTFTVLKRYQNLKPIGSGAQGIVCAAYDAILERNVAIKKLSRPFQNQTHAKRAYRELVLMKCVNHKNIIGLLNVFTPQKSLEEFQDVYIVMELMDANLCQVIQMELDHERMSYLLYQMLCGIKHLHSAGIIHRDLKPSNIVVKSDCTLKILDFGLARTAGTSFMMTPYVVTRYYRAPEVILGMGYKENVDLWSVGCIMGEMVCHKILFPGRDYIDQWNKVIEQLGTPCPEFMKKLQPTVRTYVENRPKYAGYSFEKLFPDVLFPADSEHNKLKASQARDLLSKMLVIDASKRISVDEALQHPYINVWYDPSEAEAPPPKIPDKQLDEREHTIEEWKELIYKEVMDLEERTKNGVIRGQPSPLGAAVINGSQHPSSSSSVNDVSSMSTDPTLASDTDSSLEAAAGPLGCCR

GRK7 = target: T6, GRK7 (Homo sapiens, UniProt Q8WTQ7); experiment: KinomeScan; type: binding; settings: 1uM
T6 construct: purchased DiscoveRx KINOMEscan

GRK1 = target: T7, GRK1 (Homo sapiens, UniProt Q15835); experiment: KinomeScan; type: binding; settings: 1uM
T7 construct: purchased DiscoveRx KINOMEscan

DCAMKL2 = target: T8, DCAMKL2 (Homo sapiens, UniProt Q8N568); experiment: KinomeScan; type: binding; settings: 1uM
T8 construct: purchased DiscoveRx KINOMEscan

[1] = target: T9, RPS6KA4(Kin.Dom.1-N-terminal) (Homo sapiens, UniProt O75676); experiment: KinomeScan; type: binding; settings: 1uM
T9 construct: RPS6KA4(Kin.Dom.1-N-terminal); purchased DiscoveRx KINOMEscan

EPHA2 = target: T10, EPHA2 (Homo sapiens, UniProt P29317); experiment: KinomeScan; type: binding; settings: 1uM
T10 construct: purchased DiscoveRx KINOMEscan

MYO3B = target: T11, MYO3B (Homo sapiens, UniProt Q8WXR4); experiment: KinomeScan; type: binding; settings: 1uM
T11 construct: purchased DiscoveRx KINOMEscan

EGFR(S752-I759del) = target: T12, EGFR(S752-I759del) (Homo sapiens, UniProt P00533, DEL752-759); experiment: KinomeScan; type: binding; settings: 1uM
T12 construct: purchased DiscoveRx KINOMEscan

BMPR1A = target: T13, BMPR1A (Homo sapiens, UniProt P36894); experiment: KinomeScan; type: binding; settings: 1uM
T13 construct: purchased DiscoveRx KINOMEscan

LIMK1 = target: T14, LIMK1 (Homo sapiens, UniProt P53667); experiment: KinomeScan; type: binding; settings: 1uM
T14 construct: purchased DiscoveRx KINOMEscan

SIK2 = target: T15, SIK2 (Homo sapiens, UniProt Q9H0K1); experiment: KinomeScan; type: binding; settings: 1uM
T15 construct: purchased DiscoveRx KINOMEscan

WNK3 = target: T16, WNK3 (Homo sapiens, UniProt Q9BYP7); experiment: KinomeScan; type: binding; settings: 1uM
T16 construct: purchased DiscoveRx KINOMEscan

ALK = target: T17, ALK (Homo sapiens, UniProt Q9UM73); experiment: KinomeScan; type: binding; settings: 1uM
T17 construct: purchased DiscoveRx KINOMEscan
T17 sequence (Q9UM73 19-1620): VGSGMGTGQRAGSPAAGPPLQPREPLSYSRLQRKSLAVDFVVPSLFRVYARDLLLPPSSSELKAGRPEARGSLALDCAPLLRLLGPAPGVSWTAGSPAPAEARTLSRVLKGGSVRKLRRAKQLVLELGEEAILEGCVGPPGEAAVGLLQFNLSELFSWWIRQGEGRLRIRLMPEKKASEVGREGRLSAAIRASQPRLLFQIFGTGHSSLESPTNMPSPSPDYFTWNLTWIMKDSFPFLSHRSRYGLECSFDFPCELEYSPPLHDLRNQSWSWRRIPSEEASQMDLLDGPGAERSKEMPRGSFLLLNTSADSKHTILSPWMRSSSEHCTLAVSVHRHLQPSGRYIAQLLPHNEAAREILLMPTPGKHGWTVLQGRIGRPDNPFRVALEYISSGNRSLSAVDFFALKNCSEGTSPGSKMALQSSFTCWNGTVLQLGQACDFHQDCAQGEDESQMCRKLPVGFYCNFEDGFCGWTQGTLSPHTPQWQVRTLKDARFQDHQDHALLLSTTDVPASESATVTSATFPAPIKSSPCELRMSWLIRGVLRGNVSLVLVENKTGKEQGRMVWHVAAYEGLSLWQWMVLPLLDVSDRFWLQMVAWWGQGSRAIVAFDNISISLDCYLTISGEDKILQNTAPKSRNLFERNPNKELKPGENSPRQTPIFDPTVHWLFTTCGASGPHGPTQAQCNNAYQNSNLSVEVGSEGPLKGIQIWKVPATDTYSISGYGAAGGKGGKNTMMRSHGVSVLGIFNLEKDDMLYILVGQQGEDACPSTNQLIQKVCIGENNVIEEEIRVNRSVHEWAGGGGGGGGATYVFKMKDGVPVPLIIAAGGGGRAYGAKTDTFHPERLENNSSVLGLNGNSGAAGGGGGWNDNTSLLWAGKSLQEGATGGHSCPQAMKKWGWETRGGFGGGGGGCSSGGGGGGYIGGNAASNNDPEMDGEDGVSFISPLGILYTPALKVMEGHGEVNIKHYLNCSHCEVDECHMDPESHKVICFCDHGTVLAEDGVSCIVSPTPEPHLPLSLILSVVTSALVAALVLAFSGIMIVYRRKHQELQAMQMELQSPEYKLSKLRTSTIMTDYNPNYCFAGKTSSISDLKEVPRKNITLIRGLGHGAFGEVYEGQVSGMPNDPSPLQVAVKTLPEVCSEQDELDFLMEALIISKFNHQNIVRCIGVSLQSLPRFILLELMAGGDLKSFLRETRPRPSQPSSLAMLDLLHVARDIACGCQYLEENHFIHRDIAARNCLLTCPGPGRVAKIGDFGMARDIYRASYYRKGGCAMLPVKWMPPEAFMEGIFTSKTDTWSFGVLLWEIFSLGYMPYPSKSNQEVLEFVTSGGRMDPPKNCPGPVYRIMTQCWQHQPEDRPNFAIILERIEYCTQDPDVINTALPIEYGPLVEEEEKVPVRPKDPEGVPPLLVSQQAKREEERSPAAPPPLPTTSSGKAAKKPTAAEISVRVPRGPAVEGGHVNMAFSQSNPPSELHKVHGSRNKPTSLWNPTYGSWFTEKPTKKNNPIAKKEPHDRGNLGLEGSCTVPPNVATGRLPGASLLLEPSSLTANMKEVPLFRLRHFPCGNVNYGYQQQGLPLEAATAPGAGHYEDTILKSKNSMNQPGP

ADCK4 = target: T18, ADCK4 (Homo sapiens, UniProt Q96D53); experiment: KinomeScan; type: binding; settings: 1uM
T18 construct: purchased DiscoveRx KINOMEscan

CSNK2A2 = target: T19, CSNK2A2 (Homo sapiens, UniProt P19784); experiment: KinomeScan; type: binding; settings: 1uM
T19 construct: purchased DiscoveRx KINOMEscan

[2] = target: T20, JAK1(JH1domain-catalytic) (Homo sapiens, UniProt P23458); experiment: KinomeScan; type: binding; settings: 1uM
T20 construct: JAK1(JH1domain-catalytic); purchased DiscoveRx KINOMEscan

AMPK-alpha2 = target: T21, AMPK-alpha2 (Homo sapiens, UniProt P54646); experiment: KinomeScan; type: binding; settings: 1uM
T21 construct: purchased DiscoveRx KINOMEscan

TIE2 = target: T22, TIE2 (Homo sapiens, UniProt Q02763); experiment: KinomeScan; type: binding; settings: 1uM
T22 construct: purchased DiscoveRx KINOMEscan

PIK3C2A = target: T23, PIK3C2A (Homo sapiens, UniProt O00443); experiment: ADP-glo biochemical assay
T23 construct: purchased Invitrogen
T23 sequence (O00443 whole entry): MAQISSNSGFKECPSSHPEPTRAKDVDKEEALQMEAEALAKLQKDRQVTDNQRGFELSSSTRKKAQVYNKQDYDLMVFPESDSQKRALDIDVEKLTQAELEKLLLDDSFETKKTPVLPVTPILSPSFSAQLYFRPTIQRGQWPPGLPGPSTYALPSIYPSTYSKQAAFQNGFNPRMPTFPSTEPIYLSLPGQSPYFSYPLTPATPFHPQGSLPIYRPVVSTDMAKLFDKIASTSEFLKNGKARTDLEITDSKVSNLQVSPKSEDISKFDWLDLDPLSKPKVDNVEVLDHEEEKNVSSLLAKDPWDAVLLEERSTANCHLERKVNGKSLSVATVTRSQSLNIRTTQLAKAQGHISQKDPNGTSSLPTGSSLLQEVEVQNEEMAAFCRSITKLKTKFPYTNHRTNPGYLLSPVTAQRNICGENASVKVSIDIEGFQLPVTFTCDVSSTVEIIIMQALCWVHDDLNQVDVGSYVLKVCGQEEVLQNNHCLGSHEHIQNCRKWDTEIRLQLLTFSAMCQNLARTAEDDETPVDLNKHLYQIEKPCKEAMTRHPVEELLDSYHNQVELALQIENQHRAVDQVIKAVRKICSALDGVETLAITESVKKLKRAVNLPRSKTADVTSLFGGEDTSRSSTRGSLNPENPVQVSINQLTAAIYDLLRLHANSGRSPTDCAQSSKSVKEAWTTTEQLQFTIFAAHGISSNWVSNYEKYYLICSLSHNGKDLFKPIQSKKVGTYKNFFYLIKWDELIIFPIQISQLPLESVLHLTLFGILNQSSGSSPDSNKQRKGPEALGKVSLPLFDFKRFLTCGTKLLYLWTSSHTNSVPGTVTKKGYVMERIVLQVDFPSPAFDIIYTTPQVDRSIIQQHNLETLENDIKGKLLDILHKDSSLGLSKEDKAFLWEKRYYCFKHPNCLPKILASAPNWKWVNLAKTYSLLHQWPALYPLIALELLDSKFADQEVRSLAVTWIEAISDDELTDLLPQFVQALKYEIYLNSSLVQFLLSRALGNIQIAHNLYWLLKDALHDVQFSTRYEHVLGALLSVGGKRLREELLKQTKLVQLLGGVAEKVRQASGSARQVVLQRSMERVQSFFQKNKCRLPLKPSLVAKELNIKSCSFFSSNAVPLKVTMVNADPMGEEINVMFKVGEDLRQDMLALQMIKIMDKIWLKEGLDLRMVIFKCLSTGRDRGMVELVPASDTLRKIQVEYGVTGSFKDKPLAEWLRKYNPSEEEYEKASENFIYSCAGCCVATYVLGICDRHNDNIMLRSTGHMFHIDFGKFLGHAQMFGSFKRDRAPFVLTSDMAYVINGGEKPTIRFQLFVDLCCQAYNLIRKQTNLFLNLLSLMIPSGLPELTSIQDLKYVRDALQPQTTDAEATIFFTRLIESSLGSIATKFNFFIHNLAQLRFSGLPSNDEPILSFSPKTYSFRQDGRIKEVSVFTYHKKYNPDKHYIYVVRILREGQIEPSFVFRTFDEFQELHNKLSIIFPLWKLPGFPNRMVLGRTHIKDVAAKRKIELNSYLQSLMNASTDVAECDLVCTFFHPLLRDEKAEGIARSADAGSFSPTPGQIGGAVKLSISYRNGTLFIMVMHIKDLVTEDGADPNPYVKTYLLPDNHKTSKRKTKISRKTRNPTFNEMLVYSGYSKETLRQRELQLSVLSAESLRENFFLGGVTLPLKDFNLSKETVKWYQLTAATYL
Procedure: The reaction in each tube was started immediately by adding ATP and kept going for an hour under 37°C. After the tube cooled for 5 minutes at room temperature, 5 μL solvent reactions were carried out in a 384-well plate. Then 5 μL of ADP-Glo™ reagent was added into each well to stop the reaction and consume the remaining ADP within 40 minutes. At the end, 10 μL of kinase detection reagent was added into the well and incubated for 30 minutes to produce a luminescence signal. Luminescence signal was measured with an automated plate reader (Perkin-Elmer Envision) and each measurement was performed in triplicate.

AKT2 = target: T24, AKT2 (Homo sapiens, UniProt P31751); experiment: KinomeScan; type: binding; settings: 1uM
T24 construct: purchased DiscoveRx KINOMEscan

MAP3K4 = target: T25, MAP3K4 (Homo sapiens, UniProt Q9Y6R4); experiment: KinomeScan; type: binding; settings: 1uM
T25 construct: purchased DiscoveRx KINOMEscan

ABL2 = target: T26, ABL2 (Homo sapiens, UniProt P42684); experiment: KinomeScan; type: binding; settings: 1uM
T26 construct: purchased DiscoveRx KINOMEscan

RIPK2 = target: T27, RIPK2 (Homo sapiens, UniProt O43353); experiment: KinomeScan; type: binding; settings: 1uM
T27 construct: purchased DiscoveRx KINOMEscan

MEK2 = target: T28, MEK2 (Homo sapiens, UniProt P36507); experiment: KinomeScan; type: binding; settings: 1uM
T28 construct: purchased DiscoveRx KINOMEscan

MEK3 = target: T29, MEK3 (Homo sapiens, UniProt P46734); experiment: KinomeScan; type: binding; settings: 1uM
T29 construct: purchased DiscoveRx KINOMEscan

CSNK1A1 = target: T30, CSNK1A1 (Homo sapiens, UniProt P48729); experiment: KinomeScan; type: binding; settings: 1uM
T30 construct: purchased DiscoveRx KINOMEscan
T30 sequence (P48729 whole entry): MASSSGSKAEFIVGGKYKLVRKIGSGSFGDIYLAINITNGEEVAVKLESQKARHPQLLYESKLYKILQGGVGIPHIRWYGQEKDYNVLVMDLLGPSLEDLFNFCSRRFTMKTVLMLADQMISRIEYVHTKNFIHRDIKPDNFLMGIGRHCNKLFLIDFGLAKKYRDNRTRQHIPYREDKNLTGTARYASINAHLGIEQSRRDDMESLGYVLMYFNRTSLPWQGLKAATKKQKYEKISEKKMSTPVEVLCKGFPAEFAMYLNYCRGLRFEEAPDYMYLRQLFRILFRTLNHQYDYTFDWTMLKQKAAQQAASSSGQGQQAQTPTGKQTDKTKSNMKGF

[3] = target: T31, TYK2(JH2domain-pseudokinase) (Homo sapiens, UniProt P29597); experiment: KinomeScan; type: binding; settings: 1uM
T31 construct: TYK2(JH2domain-pseudokinase); purchased DiscoveRx KINOMEscan

FGFR1 = target: T32, FGFR1 (Homo sapiens, UniProt P11362); experiment: KinomeScan; type: binding; settings: 1uM
T32 construct: purchased DiscoveRx KINOMEscan

[4] = target: T33, TYK2(JH1domain-catalytic) (Homo sapiens, UniProt P29597); experiment: KinomeScan; type: binding; settings: 1uM
T33 construct: TYK2(JH1domain-catalytic); purchased DiscoveRx KINOMEscan

YES = target: T34, YES (Homo sapiens, UniProt P07947); experiment: KinomeScan; type: binding; settings: 1uM
T34 construct: purchased DiscoveRx KINOMEscan

MLK1 = target: T35, MLK1 (Homo sapiens, UniProt P80192); experiment: KinomeScan; type: binding; settings: 1uM
T35 construct: purchased DiscoveRx KINOMEscan

CSNK1G2 = target: T36, CSNK1G2 (Homo sapiens, UniProt P78368); experiment: KinomeScan; type: binding; settings: 1uM
T36 construct: purchased DiscoveRx KINOMEscan

p38-delta = target: T37, p38-delta (Homo sapiens, UniProt O15264); experiment: KinomeScan; type: binding; settings: 1uM
T37 construct: purchased DiscoveRx KINOMEscan

DYRK1B = target: T38, DYRK1B (Homo sapiens, UniProt Q9Y463); experiment: KinomeScan; type: binding; settings: 1uM
T38 construct: purchased DiscoveRx KINOMEscan

EPHB4 = target: T39, EPHB4 (Homo sapiens, UniProt P54760); experiment: KinomeScan; type: binding; settings: 1uM
T39 construct: purchased DiscoveRx KINOMEscan

CSF1R = target: T40, CSF1R (Homo sapiens, UniProt P07333); experiment: KinomeScan; type: binding; settings: 1uM
T40 construct: purchased DiscoveRx KINOMEscan

CAMK1G = target: T41, CAMK1G (Homo sapiens, UniProt Q96NX5); experiment: KinomeScan; type: binding; settings: 1uM
T41 construct: purchased DiscoveRx KINOMEscan

JNK2 = target: T42, JNK2 (Homo sapiens, UniProt P45984); experiment: KinomeScan; type: binding; settings: 1uM
T42 construct: purchased DiscoveRx KINOMEscan

T2 sequence (P53779 whole entry): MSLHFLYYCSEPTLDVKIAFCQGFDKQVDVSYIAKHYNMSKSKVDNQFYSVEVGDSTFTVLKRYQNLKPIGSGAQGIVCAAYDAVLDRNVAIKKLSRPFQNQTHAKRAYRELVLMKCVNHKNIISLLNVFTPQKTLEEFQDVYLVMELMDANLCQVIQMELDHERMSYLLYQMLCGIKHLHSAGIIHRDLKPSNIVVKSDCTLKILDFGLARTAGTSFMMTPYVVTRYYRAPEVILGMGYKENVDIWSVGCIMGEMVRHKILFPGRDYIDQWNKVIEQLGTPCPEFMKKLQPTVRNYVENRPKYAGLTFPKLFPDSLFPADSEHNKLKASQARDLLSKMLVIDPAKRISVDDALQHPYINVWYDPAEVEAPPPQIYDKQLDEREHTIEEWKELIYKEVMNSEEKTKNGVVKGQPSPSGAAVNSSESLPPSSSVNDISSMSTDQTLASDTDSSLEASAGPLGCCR

Structure (SMILES): Cc1nc(NC(=O)[C@@H](N)C(C)C)sc1-c1cnc(Cl)c(NS(=O)(=O)c2ccccc2)c1 [PI3KD-IN-015]
- KinomeScan LATS2 (LATS2): 100
- KinomeScan JNK3 (JNK3): 100
- KinomeScan BRAF (BRAF): 93
- KinomeScan PIM2 (PIM2): 72
- KinomeScan JNK1 (JNK1): 100
- KinomeScan GRK7 (GRK7): 97
- KinomeScan GRK1 (GRK1): 99
- KinomeScan DCAMKL2 (DCAMKL2): 100
- KinomeScan RPS6KA4(Kin.Dom.1-N-terminal) [1]: 86
- KinomeScan EPHA2 (EPHA2): 100
- KinomeScan MYO3B (MYO3B): 100
- KinomeScan EGFR(S752-I759del) (EGFR(S752-I759del)): 100
- KinomeScan BMPR1A (BMPR1A): 84
- KinomeScan LIMK1 (LIMK1): 100
- KinomeScan SIK2 (SIK2): 95
- KinomeScan WNK3 (WNK3): 100
- KinomeScan ALK (ALK): 100
- KinomeScan ADCK4 (ADCK4): 95
- KinomeScan CSNK2A2 (CSNK2A2): 39
- KinomeScan JAK1(JH1domain-catalytic) [2]: 92
- KinomeScan AMPK-alpha2 (AMPK-alpha2): 100
- KinomeScan TIE2 (TIE2): 89
- pIC50 (PIK3C2A): < 5.00
- KinomeScan AKT2 (AKT2): 86
- KinomeScan MAP3K4 (MAP3K4): 100
- KinomeScan ABL2 (ABL2): 99
- KinomeScan RIPK2 (RIPK2): 98
- KinomeScan MEK2 (MEK2): 94
- KinomeScan MEK3 (MEK3): 93
- KinomeScan CSNK1A1 (CSNK1A1): 100
- KinomeScan TYK2(JH2domain-pseudokinase) [3]: 100
- KinomeScan FGFR1 (FGFR1): 100
- KinomeScan TYK2(JH1domain-catalytic) [4]: 100
- KinomeScan YES (YES): 100
- KinomeScan MLK1 (MLK1): 100
- KinomeScan CSNK1G2 (CSNK1G2): 100
- KinomeScan p38-delta (p38-delta): 98
- KinomeScan DYRK1B (DYRK1B): 100
- KinomeScan EPHB4 (EPHB4): 100
- KinomeScan CSF1R (CSF1R): 67
- KinomeScan CAMK1G (CAMK1G): 94
- KinomeScan JNK2 (JNK2): 100
